Source: US8580309B2, “Antimicrobial mixtures” (priority 2006, dated 2013)

Key:
[1] = test system: Staphylococcus aureus NCTC 6571; test: Lethal photosensitisation of S. aureus by gold nanoparticle-photosensitiser mixtures under white light, viable counting; format: cell-based; details: preliminary experiments, 30 minutes light exposure
Procedure: Gold nanoparticles (2.0 nm diameter; British Biocell International) in water (15×10^13 particles per ml) were mixed with an equal volume of an aqueous solution of toluidine blue O (40 μM) and left at room temperature for 15 minutes. 100 μl of the gold-TB solution was added to 100 μl of a suspension of Staphylococcus aureus NCTC 6571 in phosphate buffered saline (PBS) and this was irradiated with white light from a fluorescent white lamp for 10 minutes. Controls consisted of:
(i) TB (final concentration=10 μM) and bacteria, irradiated for the same period of time,
(ii) nanogold (diluted 1:1 with water) and bacteria, irradiated for the same period of time,
(iii) bacteria without TB or nanogold, not irradiated (“control”).
After irradiation, the number of surviving bacteria was determined by viable counting. […] Note that the TB concentration and light energy dose used were designed to give sub-optimal kills so that differences in efficacy of the TB and the TB-nanogold could be discerned. Preliminary experiments using 30 minutes light exposure achieved total kills of the bacterial suspensions in both cases.
Gold nanoparticles of approximately 15 nm in diameter (batches NN1 and NN2 above) were mixed with an equal volume of aqueous toluidine blue O (TB) and left at room temperature for 15 minutes. TB was used at a final concentration of 1, 5, 10, 20 or 50 μM. […]

[2] = test system: Staphylococcus aureus NCTC 6571; test: Lethal photosensitisation of S. aureus by TBO-tiopronin-gold nanoparticle conjugate, white light, viable counting; format: cell-based; details: irradiated with white light for any length of time (15, 30, 45 minutes)

`Cc1cc2nc3ccc(N(C)C)cc3[s+]c2cc1N.[Cl-]` [TB only, toluidine blue O] was tested, and the “kill of the bacterial suspensions (in words)” value [1] was “total kills” and the “antibacterial effect (in words)” value [2] was “no effect”.
